Source: US6288111A (Research Development Foundation, priority 1995, dated 2001)
Read-outs that look alike come from different tables or passages of the source.

Key:
[1] = human, in vivo
Description: (§1) Entry requirements included histologically documented melanoma, measurable disease, signed informed consent, and no anti-tumor therapy during the previous 4 weeks. Patients were required to have normal hematologic and renal function, an Eastern Cooperative Oncology Group (ECOG) performance status of 0-2 and an estimated survival of at least 3 months. Patients with a previous history of deep venous thrombosis or pulmonary embolism were excluded.
(§2) Pre-treatment hydration consisted of 1 liter of 5% dextrose/0.45%saline containing 20 mEq of potassium chloride and 2 g magnesium sulfate administered over 4 hours. […] Patients were retreated every 3 weeks. On cycles where TAM was administered, 40 mg p.o. four doses per day were given on day 1 followed by 20 mg p.o. daily thereafter.

melanoma [2] = assay: Clinical trial: response of melanoma patients to DDP alone, then TAM/DDP; format: in vivo, human
Description: A complete response was defined as the complete disappearance of all evidence of disease for at least 4 weeks. A partial response was a decrease in the mean diameter of the target lesion by 50% or more lasting at least 4 weeks. A mixed response was a decrease in the diameter of some target lesions of 50% or more while others remained stable or increased in size.
Patients were retreated every 3 weeks. […] Subsequent patients received an ondansetron-based regimen.

[3] = test system: T-289 human melanoma cells; assay: Development of DDP resistance in T-289 cells (selection with DDP ± TAM, colony formation assay); format: cell-based
melanoma [4] = details: 203 treated melanoma patients; cited from earlier work
[5] = read-out: Steady-state plasma concentration; chronic administration, 10 mg p.o. twice a day; cited from earlier work
[6] = Plasma concentrations of TAM in patients; details: predicted from in vitro data
[7] = Clinical trial: toxicities with DDP or DDP/TAM treatment; details: in words
Description: as §1, §2

[8] = DDP alone: 24 patients, TAM/DDP: 20 patients (19 evaluated), after DDP alone
[9] = DDP alone: 24 patients, TAM/DDP: 20 patients, after DDP alone
[10] = of the 19 patients evaluated for TAM/DDP

Structure (SMILES): Cc1nccn1CC1CCc2c(c3ccccc3n2C)C1=O (stereo not drawn) [ondonsetron]
- Nausea or vomiting [1]: markedly reduced nausea and vomiting during hospitalization

Structure (SMILES): CC/C(=C(\c1ccccc1)c1ccc(OCCN(C)C)cc1)c1ccccc1 [TAM, tamoxifen]
- Outcome of treatment in words (melanoma [2]; TAM and DDP in patients resistant to single agent DDP): can overcome established resistance to DDP in a significant fraction of patients with malignant melanoma
- Effect on development of DDP resistance ([3]; T-289, concurrent DDP and TAM, in words): can delay the development of DDP resistance
- Response rate, single agent TAM (melanoma [4]): 6%
- concentration [5]: ~290 nM
- Plasma concentration predicted to be necessary in DDP resistant patients [6]: more than 1.0 μM
- Nephrotoxicity [7]: nephrotoxicity was uncommon and unaffected by the administration of TAM
- Overall toxicity / tolerability [7]: No increased toxicity was noted with the addition of TAM to single agent DDP
- Nausea or vomiting ([7]; during hospitalization for ondonsetron): did not increase nausea or vomiting

Structure (SMILES): N.N.[Cl][Pt][Cl] [DDP, cis-diamminedichloroplatinum (II)]
- Duration of complete response (melanoma [2]; DDP alone, one patient): more than 15 months
- Stable off treatment after partial response (melanoma [2]; DDP alone, one patient): ≥ 6 months
- Time to progression after partial response (melanoma [2]; DDP alone, one patient): 4 months
- Complete Response (%) (melanoma [2]; DDP alone: 24 patients): 4%
- Progressive Disease (number of patients) (melanoma [2]; DDP alone: 24 patients (two refused DDP/TAM), TAM/DDP: 20 patients): 19 patients
- Stable Disease (number of patients) (melanoma [2]; DDP alone: 24 patients, TAM/DDP: 20 patients): 2 patients
- Mixed Response (number of patients) (melanoma [2]; [8]): 0 patients
- Partial Response (number of patients) (melanoma [2]; [8]): 2 patients
- Complete Response (number of patients) (melanoma [2]; [9]): One
- Partial Response (%) (melanoma [2]; [9]): 8%
- Complete Response (number of patients) (melanoma [2]; DDP alone: 24 patients, TAM/DDP: 20 patients, after DDP alone, listed as Cisplatin): 1 patients
- Progressive disease while receiving single agent DDP (number of patients) (melanoma [2]; [10]): 17 patients
- Stable disease while receiving single agent DDP (number of patients) (melanoma [2]; [10]): 2 patients
- Time at which DDP resistance became apparent ([3]; T-289, selection): 200 days
- Rate of emergence of DDP resistance, DDP alone compared with DDP and TAM ([3]; T-289, p<0.01): 2.75 fold
